According to PMC4540712, “Development of a clickable bimodal fluorescent/PET probe for in vivo imaging” (EJNMMI Research, 2015):
Starred links: 1 amine or outer side, 2 acyl side, 3 side chain; linkers in the order of their positions; H or OH if unused. Non-standard residues stand in square brackets, D forms with d. Residues, ends and D or L forms follow the SMILES beside them. *: point of attachment. BODIPY(FL) = CC1=CC(C)=[N+]2C1=Cc1ccc(CCC(=O)*)n1[B-]2(F)F; X1 = O=C(CCc1cn(CCOCCOCCOCCN[*:1])nn1)[*:2]; Sta = CC(C)C[C@H](N)[C@@H](O)CC(=O)O; X2 = O=C(CN1CCC(N[*:1])CC1)[*:2]

Tests used:
[1] = biological target: T1, GRP receptor overexpressing PC-3 cells (Homo sapiens, UniProt P30550); experiment: confocal live-cell imaging of uptake and blocking in PC-3 cells; type: cell-based; details: 37 °C, 30 min
T1 construct: host or cells: PC-3 (human prostate cancer cell line)
Experimental: To determine BODIPY-BBN uptake in vitro, PC-3 cells (1.0 × 10^4 per well) were seeded in a two-well chamber slide (Nunc™ Lab-Tek™ II Chamber Slide™ System) containing growth media (1 mL) and incubated at 37 °C for 24 h. To study the uptake of BODIPY-BBN, PC-3 cells were incubated with 5 (10 nM in PBS, 37 °C for 30 min). At the same time blocking studies were performed. PC-3 cells were pre-incubated with RM2 (1000 nM in PBS, 37 °C for 5 min) before incubation with BODIPY-BBN (10 nM in PBS, 37 °C for 30 min). After washing with media (1.0 mL), blue whole cell stain was added and incubated at room temperature for 5 min. The cells were washed with PBS (3 × 1.0 mL), living cells were imaged using an inverted confocal microscope (Leica TCS SP5 II), and data were analyzed with Fiji.
(§1) The binding of BODIPY-BBN 5 toward GRP receptor overexpressing PC-3 cells was evaluated in confocal live-cell imaging (Fig. 4a). After incubation of BODIPY-BBN 5 (10 nM, 30 min), cells were treated with blue whole cell stain (5 min) and washed with PBS. […] We also confirmed the binding affinity of BODIPY-BBN 5 using [^125I-Tyr^4]bombesin in a competitive binding assay (Fig. 4b). […] We then determined the stability of our imaging tracer in human serum (37 °C) at pre-determined time points showing >90 % intact fluorescent imaging agent after 60 min of incubation (Additional file 1: Figure S6).

stability in human serum = type: in vitro ADME; details: 37 °C, after 60 min of incubation, time points 0, 15, 30, 45, 60 min, fluorescence read-out
Experimental: as §1
Figure S6: Percent intact fluorescent ^19F-BODIPY-BBN in human serum at different time points (0, 15, 30, 45, and 60 min) after incubation at 37 °C.

T1 sequence (P30550 whole entry): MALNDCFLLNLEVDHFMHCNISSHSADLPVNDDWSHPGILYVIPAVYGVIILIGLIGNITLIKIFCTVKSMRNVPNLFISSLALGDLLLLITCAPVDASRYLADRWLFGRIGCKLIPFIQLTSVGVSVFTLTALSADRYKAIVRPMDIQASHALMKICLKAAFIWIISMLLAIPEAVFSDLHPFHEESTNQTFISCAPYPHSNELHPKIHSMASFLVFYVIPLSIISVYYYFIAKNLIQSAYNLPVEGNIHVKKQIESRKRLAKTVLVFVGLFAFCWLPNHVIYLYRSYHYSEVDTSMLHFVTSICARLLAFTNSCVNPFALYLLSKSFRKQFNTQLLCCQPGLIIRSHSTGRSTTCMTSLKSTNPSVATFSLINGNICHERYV

- binding in confocal live-cell imaging ([1]; PC-3 cells, 10 nM in PBS, green fluorescence): antagonist-specific binding
Compound: Cc1cc(C)n2c1C=C1C=CC(CCC(=O)NCCOCCOCCOCCn3cc(CCC(=O)NC4CCN(CC(=O)N[C@H](Cc5ccccc5)C(=O)N[C@@H](CCC(N)=O)C(=O)N[C@@H](Cc5c[nH]c6ccccc56)C(=O)N[C@@H](C)C(=O)N[C@H](C(=O)NCC(=O)N[C@@H](Cc5c[nH]cn5)C(=O)N[C@@H](CC(C)C)[C@@H](O)CC(=O)N[C@@H](CC(C)C)C(N)=O)C(C)C)CC4)nn3)=[N+]1[B-]2(F)F [BODIPY-BBN 5] ({BODIPY(FL)}-[X1][X2][dF]QWAVGH[Sta]L-NH2)
- fluorescent signal after blocking (GRP receptor specificity) ([1]; PC-3 cells pre-incubated with 100-fold excess of unlabeled GRP receptor antagonist (1000 nM, 5 min), then 10 nM probe): complete suppression of green fluorescent signal
- intact fluorescent imaging agent in human serum (stability in human serum): > 90%
